# Test results reported in patent US5496835A, “Heterocyclic compounds having angiotensin II antagonistic activity and use thereof” (Takeda Chemical Industries, Ltd., priority 1992, dated 1996).
# Key:
# pressor action of AII = assay: Inhibitory effect on pressor action of AII in rats after oral administration; format: in vivo, Jcl:SD rats; conditions: 1 mg/kg p.o., percent inhibition of pressor action of AII 100 ng/kg i.v.
# Description: Jcl:SD rats (9 week old, male) were used. On the previous day of the experiment, these animals were applied with cannulation into the femoral artery and vein under anesthesia with pentobarbital Na. These animals were fasted but allowed to access freely to drinking water until the experiment was started. Just on the day of conducting the experiment, the artery cannula was connected with a blood-pressure transducer, and the average blood pressure was recorded by means of polygraph. Before administration of the drug, the pressor action due to intravenous administration of AII (100 ng/kg) as the control was determined. The drugs were orally administered, then, at each point of the determination, AII was administered intravenously, and the pressor action was similarly determined. By comparing the pressor action before and after administration of the drug, the percent inhibition by the drug was evaluated.
# AII receptor = target: T1, AII receptor (Bos taurus, UniProt P25104); assay: Inhibition of binding of 125I-angiotensin II to AII receptor membrane fraction; conditions: bovine adrenal cortex membrane fraction, 125I-AII, read-out: Binding-inhibitory action (rate) %; for inhibition at 1 µM: compound 10^-6 M; for inhibition at 0.1 µM: compound 10^-7 M
# T1 construct: An AII receptor membrane fraction was prepared from bovine adrenal cortex; from tissue; host or cells: bovine adrenal cortex, membrane fraction
# T1 sequence (P25104 1-359): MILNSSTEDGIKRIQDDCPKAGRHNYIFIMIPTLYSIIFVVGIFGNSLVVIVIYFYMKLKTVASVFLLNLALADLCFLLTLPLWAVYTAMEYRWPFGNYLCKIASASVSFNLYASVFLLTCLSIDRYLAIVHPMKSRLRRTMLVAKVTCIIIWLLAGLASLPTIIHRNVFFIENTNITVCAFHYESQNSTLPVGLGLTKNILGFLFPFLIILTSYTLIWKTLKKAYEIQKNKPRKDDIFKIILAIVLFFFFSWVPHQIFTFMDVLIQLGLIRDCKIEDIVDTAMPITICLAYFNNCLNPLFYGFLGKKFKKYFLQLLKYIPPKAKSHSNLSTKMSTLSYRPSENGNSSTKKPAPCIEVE
# Description: An experiment of inhibition on the binding of angiotensin II (AII) to AII receptor was conducted by modifying the method of Douglas et al. [Endocrinology, 102, 685-696 (1978)]. An AII receptor membrane fraction was prepared from bovine adrenal cortex.
# The compound of the present invention (10^-6 M or 10^-7 M) and ^125 I-angiotensin II (^125 I-AII) (2.44kBq/50 μl) were added to the receptor membrane fraction, and the mixture was incubated at room temperature for one hour. The receptor-bound and free ^125 I-AII were separated through a filter (Whatman GF/B filter), and the radioactivity of ^125 I-AII bound to the receptor was determined.
inhibition at 1 µM (AII receptor),inhibition at 0.1 µM (AII receptor),Compound,Pressor-inhibitory action (pressor action of AII)
68%,30%,"CCCCc1n[nH]c(C(=O)O)c1Cc1ccc(-c2ccccc2-c2nc(=O)o[nH]2)cc1 [Working Example 2, 3-Butyl-4-[2'-(2,5-dihydro-5-oxo-1,2,4-oxadiazol-3-yl)biphenyl-4-yl]methylpyrazole-5-carboxylic acid]",+ (50% > +-)
37%,,CCCCc1nn(-c2ccccc2Cl)c(C(=O)O)c1Cc1ccc(-c2ccccc2-c2nsc(=O)[nH]2)cc1 [compound 8],+++ (+++ ≥ 70%)
17%,7%,CCCCc1n[nH]c(C(=O)OC)c1Cc1ccc(-c2ccccc2-c2nsc(=O)[nH]2)cc1 [compound 3],+++ (+++ ≥ 70%)
32%,,CCCCc1nn(-c2ccccc2Cl)c(C(=O)O)c1Cc1ccc(-c2ccccc2-c2noc(=O)[nH]2)cc1 [compound 6],++ (70% > ++ ≥ 50%)
